{
  "source": "patent US20240325521A1",
  "about": "“IONIZABLE LIPID COMPOUND FOR NUCLEIC ACID DELIVERY AND LNP COMPOSITION THEREOF” (priority 2021, published 2024)",
  "key": {"[1]": {"assay": "Detection of novel coronavirus LNP-mRNA vaccine after encapsulation with different cationic lipids (encapsulation efficiency, particle size, PDI, Zeta potential)", "assay_type": "physicochemical", "conditions": "compared with control cationic lipids III and IV"}, "[2]": {"conditions": "25° C., up to 4 weeks; compared with cationic lipids III and IV"}, "Hep3B cells": {"test_system": "Hep3B cells", "assay_type": "cell-based", "conditions": "compared with cationic lipids III and IV"}},
  "data": [
    {"smiles": "CCCCCCCCC(CCCCCC)COC(=O)OCCCCCCN(CCCCO)CCCCCCOC(=O)OCC(CCCCCC)CCCCCCCC", "note": "(stereo not drawn) [Compound 1]", "values": [
      {"measurement": "encapsulation effect on mRNA antigen", "setting": "[1]", "result": "better encapsulation effect"},
      {"measurement": "stability of LNP-mRNAs prepared by the cationic lipid", "setting": "[2]", "result": "better"},
      {"measurement": "in-vitro transfection efficiency", "setting": "Hep3B cells", "result": "better"}
    ]},
    {"smiles": "CCCCCCCCCCCOC(=O)OCCCCCN(CCO)CCCCCCCOC(=O)OC(CCCCCCCC)CCCCCCCC", "note": "[Compound 2]", "values": [
      {"measurement": "encapsulation effect on mRNA antigen", "setting": "[1]", "result": "better encapsulation effect"},
      {"measurement": "stability of LNP-mRNAs prepared by the cationic lipid", "setting": "[2]", "result": "better"},
      {"measurement": "in-vitro transfection efficiency", "setting": "Hep3B cells", "result": "better"}
    ]}
  ]
}
